Assay results: US20240082433A1, “TUMOR RESECTION PROCESS AND COMPOSITION CONTAINING IRIDIUM-CONTAINING NUCLEOSIDE” (Cleveland State University, priority 2022, published 2024)

Legend:
brain cancer cells (U87) [1] = assay: Uptake/fluorescence imaging in 3D and 2D U87 brain cancer cell culture; format: cell-based, human
Method: To improve the imaging capabilities of this class of compound, additional analogs corresponding to Ir(III)-BZQ nucleoside and Ir(III)-PBO nucleoside (FIG. 5) were synthesized and tested for uptake using 3-dimensional cell culture techniques. […] Fluorescent microscopy was used to investigate the uptake of each nucleoside in which cells were treated with 1 μM of each compound for 24 hours. […] This conclusion is based on the more intense fluorescent signal observed in cells treated with Ir(III)-BZQ nucleoside that accurately defines the overall 3-dimensional shape of the cancerous mass. In particular, the overall intensity in green fluorescence caused by the uptake of Ir(III)-BZQ nucleoside is about 5 times greater than observed in cells treated with equivalent concentrations of Ir(III)-PPY nucleoside. […] While this represents an interesting phenomenon, this behavior precludes the ability of Ir(III)-PBO nucleoside to function as a “tumor margin” imaging agents since there is no defined outline of the cancerous mass.
(§1) Fluorescent microscopy techniques were used to measure both red and green fluorescence associated with the cellular uptake of the analog over a three (3) day treatment period. […] The fluorescent signals are only observed in the 3D cancerous masses, thus making them easily identifiable at low magnification (10×).
FIG. 10 compares fluorescence activity of Ir(III)-BZQ nucleoside with Indocyanine green at a fixed concentration of 10 μM. Images were taken comparing fluorescence emission in the red (600-700 nm) and green spectral range (500-600 nm) after 24 hours post-treatment.

brain cancer cells (U87) [2] = assay: Cell-killing effects against 2D and 3D U87 brain cancer cells by microscopy; format: cell-based, human; details: for cell-killing / therapeutic activity: U87 3D masses and 2D cells, 10 μM
Method: FIG. 7 illustrates the time-dependent uptake and cell-killing effects of Ir(III)-BZQ nucleoside (10 μM) against 2D and 3D brain cancer cells.
as §1

MDA-MB-468 = assay: Uptake/fluorescence in 3D TNBC model MDA-MB-468; format: cell-based; details: 3D MB-468, 10 μM, 24 hours
Method: (§2) The theranostic activity of […] was also confirmed using 3D models of triple negative breast cancer (TNBC) (MDA-MB-453, MDA-MB-468, BT-549, MDA-MB-231). TNBC cells were chosen due to the poor prognosis caused by their aggressive nature and limited treatment options. 3D cancer cells were treated with 10 μM Ir(III)-BZQ nucleoside for 24 hours prior to microscopy analyses.

normal fibroblasts [3] = assay: LD50 in 2D cell culture, normal fibroblasts; format: cell-based; details: 2D cell cultures
Source text: The therapeutic activity and selectivity of Ir(III)-BZQ nucleoside was confirmed by measuring LD50 values against MB-468 cells (high accumulation), MDA-MB-231 (low accumulation), and normal fibroblasts using 2D cell cultures (Table 1, below).

MDA-MB-453 = assay: Uptake/fluorescence in 3D TNBC model MDA-MB-453; format: cell-based
Method: as §2
Two (2) new Iridium-nucleosides designated Ir(III)-PPY-nucleoside (small, hydrophobic) and Ir(III)-PBO nucleoside (small, hydrophilic) were synthesized and tested as cancer imaging agents. FIG. 14 compares the imaging properties of these two analogs versus our lead agent, Ir(III)-BZQ nucleoside (small, hydrophobic). Experiments were performed treating MDA-MB-453 cells with 1 μM of each compound for 3 days. […] This phenomenon precludes its further development as a tumor margin imaging agent as it poorly defines the entire 3D mass as compared to Ir(III)-BZQ nucleoside and Ir(III)-PPY nucleoside.

BT-549 = assay: Uptake/fluorescence in 3D TNBC model BT-549; format: cell-based; details: 3D BT-549, 10 μM, 24 hours
Method: as §2

MDA-MB-231 = assay: Uptake/fluorescence in 3D TNBC model MDA-MB-231; format: cell-based; details: 3D MB-231, 10 μM, 24 hours
Method: as §2

MDA-MB-468 cells = assay: Dual parameter flow cytometry (Annexin V / propidium iodide) apoptosis; format: cell-based; details: MDA-MB-468, variable concentrations
Source text: Dual parameter flow cytometry employing Annexin V and propidium iodide staining was used to measure apoptosis in MDA-MB-468 cells treated with variable concentrations of Ir(III)-BZQ nucleoside. […] Microscopy imaging verifies an increase in green fluorescence caused by the accumulation of Ir(III)-BZQ nucleoside and correlates with the dose-dependent increase in apoptosis caused by the agent.

[4] = test system: MT1A2 cells (derived from PyMT); assay: Uptake/fluorescence in MT1A2 cells; format: cell-based; details: MT1A2, 10 μM, 24 hours
[5] = test system: cervical cancer cells (KB3-1 cell line); assay: Cytotoxic effects in KB3-1 cells; format: cell-based, human; details: KB3-1, after 24 hours
Source text: (§3) Several Iridium-containing nucleosides were synthesized and their imaging and anti-cancer activities were characterized. One non-limiting example of a compound is designated as Ir(III)-PPY nucleoside and shown in FIG. 2 next to deoxyadenosine. The synthetic design relies on the catalyzed [3+2] cycloaddition of azides to terminal alkynes. In this design, pyridyl triazoles covalently link the metal atom to the deoxyribose and this prevents metal dissociation from the complex. The cellular uptake of Ir(III)-PPY nucleoside into cervical cancer cells (KB3-1 cell line) was evaluated by treating cells with variable concentrations of Ir(III)-PPY nucleoside (0-50 μM). At times ranging from 4 to 24 hours, fluorescence microscopy images were taken using an excitation wavelength (λex) of 340 nm and an emission wavelength (λem) of 480 nm. […] The uptake of low concentrations (10 μM) of Ir(III)-PPY nucleoside can be visualized as early as 4 hours post treatment. Ir(III)-PPY nucleoside produces weak cytotoxic effects (IC50˜50 μM) after 24 hours. Thus, the cellular uptake can be measured on short time scales (Δt<12 hours) without complications arising from effects on cell viability.

normal fibroblasts [6] = assay: Selective uptake in co-culture, normal fibroblasts, fluorescent microscopy; format: cell-based; details: co-cultured with RFP-U87, 10 μM, 4 hours
Method: (§4) Fluorescent microscopy was then used to validate that the uptake of Ir(III)-PPY nucleoside is selective for cancer cells. FIG. 4 compares the uptake of Ir(III)-PPY nucleoside using a human brain cancer cell line, U87, that expresses red fluorescent protein (RFP) versus normal fibroblasts. In these experiments, RFP-U87 cells were co-cultured with normal fibroblasts overnight and then treated with 10 μM Ir(III)-PPY nucleoside for 4 hours. […] Similar results were obtained at longer time intervals encompassing 24 hours incubation with Ir(III)-PPY nucleoside (data not shown).

[7] = test system: cervical cancer cells (KB3-1 cell line); assay: Cellular uptake into KB3-1 cells by fluorescence microscopy; format: cell-based, human
Method: FIG. 3 includes fluorescence microscopy images of the dose-dependent uptake of Ir(III)-PPY nucleoside in the human cancer cell line, KB3-1, particularly showing increased Ir(III)-PPY nucleoside (green) as a function of increasing concentration (Δt=4 hours).
as §3, with “Ir(III)-PPY nucleoside produces weak cytotoxic effects (IC50˜50 μM) after 24 hours.” left out

[8] = test system: human brain cancer cell line, U87, that expresses red fluorescent protein (RFP); assay: Selective uptake in co-culture, RFP-U87 cells, fluorescent microscopy; format: cell-based; details: RFP-U87 co-cultured with normal fibroblasts, 10 μM, 4 hours
Source text: FIG. 4 includes microscopy images showing co-localization of Ir(III)-PPY nucleoside in glioblastoma cells expressing red-fluorescent protein (RFP-U87).
as §4

[9] = U87, 10 μM, three days vs 1 day

Structure (SMILES): CC1(C)C(/C=C/C=C/C=C/C=C2\N(CCCCS(=O)(=O)O)c3ccc4ccccc4c3C2(C)C)=[N+](CCCCS(=O)(=O)[O-])c2ccc3ccccc3c21 [Indocyanine green, reference compound]
- fluorescence emission in the red spectral range (600-700 nm), direct comparison (brain cancer cells (U87) [1]; 10 μM, 24 hours post-treatment): superior fluorescence emission activity
- red fluorescence in U87 cells (brain cancer cells (U87) [1]; 1 and 10 μM, after 24 hours, 10× magnification): dose-and time dependent increase in red fluorescence
- fluorescence emission activity in the red spectral range (600-700 nm) relative to Ir(III) BZQ nucleoside (brain cancer cells (U87) [1]; U87, identical concentrations (1 and 10 μM), 24 hours): ~5 times
- cell-killing / therapeutic activity (brain cancer cells (U87) [2]; 1 to 3 days treatment): no detectable therapeutic activity
- overall size of the 3D masses (brain cancer cells (U87) [2]; U87, 10 μM, 1 to 3 days treatment): increases as a function of time

Structure (SMILES): F[P-](F)(F)(F)(F)F.OCC1OC(n2cc(-c3ccccn3)nn2)CC1O.c1cnc2c(c1)ccc1ccc[c]([Ir][c]3cccc4ccc5cccnc5c34)c12 [Ir(III)-BZQ nucleoside]
- fluorescence emission in the green spectral range (500-600 nm), direct comparison (brain cancer cells (U87) [1]; 10 μM, 24 hours post-treatment): superior fluorescence emission
- imaging activity amongst the three compounds tested (brain cancer cells (U87) [1]; U87 3D masses, 1 μM, 24 hours): superior activity
- red fluorescence (brain cancer cells (U87) [1]; U87 3D masses, 1 μM, 24 hours): display red fluorescence
- overall intensity in green fluorescence relative to Ir(III)-PPY nucleoside (brain cancer cells (U87) [1]; U87 3D masses, 1 μM, 24 hours, equivalent concentrations): about 5 times
- fluorescence signal in 2D cells (brain cancer cells (U87) [1]; U87, 10 μM, 10× magnification): Little to no fluorescence signal
- fluorescence signals in 3D cancerous masses (brain cancer cells (U87) [1]; U87, 10 μM, after 1 day, 10× magnification): intense red and green fluorescence signals
- fluorescence signals in 3D masses (brain cancer cells (U87) [1]; U87, 10 μM, after three days): still show intense fluorescence signals
- fluorescence signals (uptake and accumulation) (MDA-MB-468): high fluorescence signals
- cytotoxic effects (LD50) (normal fibroblasts [3]): minimal cytotoxic effects
- cell-killing / therapeutic activity (brain cancer cells (U87) [2]; 1 to 3 days treatment): possesses cell-killing activity
- cell-killing effect on 2D cells (brain cancer cells (U87) [2]; [9]): reduction in the number of 2D cells
- cell-killing effect on 3D masses (brain cancer cells (U87) [2]; [9]): death of cells that reside at the outer fringe of the cancerous mass
- fluorescence signals (uptake and accumulation) (MDA-MB-453; 3D MB-453, 10 μM, 24 hours): high fluorescence signals
- fluorescence intensity compared to Ir(III)-PPY nucleoside and Ir(III)-PBO nucleoside (MDA-MB-453; MDA-MB-453, 1 μM, 3 days): ~5 fold
- imaging activity among the three compounds (MDA-MB-453; MDA-MB-453, 1 μM, 3 days): superior activity
- fluorescence signals (uptake and accumulation) (BT-549): weak fluorescence
- fluorescence signals (uptake and accumulation) (MDA-MB-231): weak fluorescence
- apoptosis (MDA-MB-468 cells): increase in both early- and late-stage apoptosis
- necrotic cell death (MDA-MB-468 cells): without causing necrotic cell death
- fluorescence signals (uptake and accumulation) [4]: no fluorescence signals

Structure (SMILES): F[P-](F)(F)(F)(F)F.OCC1OC(n2cc(-c3ccccn3)nn2)CC1O.c1ccc(-c2ncco2)[c]([Ir][c]2ccccc2-c2ncco2)c1 [Ir(III)-PBO nucleoside]
- fluorescence pattern in cells (brain cancer cells (U87) [1]; U87 3D masses, 1 μM, 24 hours): unique punctates
- red fluorescence (brain cancer cells (U87) [1]; U87 3D masses, 1 μM, 24 hours): not observed
- fluorescence pattern in cells (MDA-MB-453; MDA-MB-453, 1 μM, 3 days): unique punctates

Structure (SMILES): F[P-](F)(F)(F)(F)F.OCC1OC(n2cc(-c3ccccn3)nn2)CC1O.c1ccc(-c2cccc[c]2[Ir][c]2ccccc2-c2ccccn2)nc1 [Ir(III)-PPY nucleoside]
- IC50 [5]: ~50 µM
- red fluorescence (brain cancer cells (U87) [1]; U87 3D masses, 1 μM, 24 hours): not observed
- uptake in normal fibroblasts (normal fibroblasts [6]): no uptake
- intracellular accumulation (green fluorescence) ([7]; KB3-1, 0-50 μM, 4 to 24 hours, λex 340 nm, λem 480 nm): dose-dependent
- time post treatment at which uptake can be visualized ([7]; KB3-1, 10 μM): ≤ 4 h
- uptake in U87 cancer cells [8]: rapidly accumulates
